# Measured values reported in patent US7307166B1, “Oxpurine nucleosides and their congeners, and acyl, derivatives thereof, for improvement of hematopoiesis” (Wellstat Therapeutics Corporation, priority 1987, dated 2007).
# Experiments:
# Assay type in all cases: in vivo, mouse
# [1] = system: Balb/C female mice; test: Hematopoietic recovery after cyclophosphamide in mice (spleen weight, blood cell counts)
# [2] = system: Balb/C female mice; test: Hematopoietic recovery after 5-fluorouracil in mice
# Procedure: 5-fluorouracil (5-FU) (150 mg/kg, i.p.) was administered to forty Balb/C female mice weighing approximately 20 grams each. Twenty-four hours later and each day thereafter for a total of 8 days, mice were given a 0.4 ml i.p. injection of either physiological saline (controls) or 5′-O-palmitoylguanosine (2.5 μmoles/mouse/day in 0.2% Tween 80). On days 7 and 14 following 5-FU administration half of the animals from each group were bled and then were sacrificed by cervical dislocation. Spleens were removed and weighed, and complete blood cells counts performed.
# 5-fluorouracil (5-FU) (150 mg/kg, i.p.) was administered to fifty-four Balb/C female mice weighing approximately 20 grams each. Twenty-four hours later and each day thereafter for a total of 7 days, mice were given a 0.4 ml i.p. injection of either physiological saline (controls) or palmitoylguanosine (2.5 μmoles/mouse/day in 0.2% Tween 80). On days 8, 10 and 12 following administration of 5-FU nine animals from each group were bled and then sacrificed by cervical dislocation. Spleens were removed and weighed, and complete blood cell counts performed.
# Twenty-eight female Balb/C mice weighing approximately 20 grams each received a 0.4 ml i.p. injection of either physiological saline (controls), or palmitoyldeoxyguanosine (1 μmole/mouse) daily for three days. On the fourth day 5-fluorouracil (5-FU) (150 mg/kg, i.p.) was administered to all 28 of the animals. On days 5, 8 and 11 following 5-FU administration 4 (day 5) or 5 (days 8 and 11) animals from both groups were bled and then sacrificed by cervical dislocation. Spleens were removed and weighed, and complete blood cell counts performed. […]
# Sixty female Balb/C mice weighing approximately 20 grams each were distributed into one of five treatment groups and treated once daily for three days by i.p. injection with 3′,5′-O—N^2-tripalmitoyl-2′-deoxyguanosine at a dose of either 1, 5, 10, 25, or 50 mg/kg/treatment in a Tween-DMSO vehicle (0.2% Tween-80 and 7.5% DMSO in physiological saline). Injection volume was 0.4 ml. An additional twelve animals (controls) received vehicle alone on those three days. On the fourth day all seventy-two animals received a single i.p. injection of 5-fluorouracil (5-FU) at a dose of 150 mg/kg. On days 7 and 10 following 5-FU administration six mice from each group were bled and then sacrificed by cervical dislocation. Six untreated mice were also bled and sacrificed to provide data on normal (basal) values. Spleens were removed and weighed, and complete blood cell counts performed.
# [3] = system: interleukin-6; test: LPS-induced elevation of serum interleukin-6; conditions: PdG 25 mg/kg i.p.
# Procedure: Sixty-three female Balb/C mice were randomly assigned to one of three groups. The animals in one group received a single daily dose of N^2,3′,5′-tripalmitoyldeoxyguanosine (PdG) (25 mg/kg, i.p.), while a second group received a single daily dose of the PdG treatment vehicle (control). The third group was left untreated. On the fourth day 100 μg salmonella typhimurium LPS was administered to all three groups. Serum samples were taken just prior to LPS administration (t=0) and at two, four, six, eight, ten, twelve, sixteen, and twenty hours after LPS administration. The samples were then frozen until the time of assay. Serum levels of TNF-alpha, and IFN-gamma were measured by ELISA.
# PdG also attenuated LPS-induced elevation of serum interleukin-1-alpha and interleukin-6.
# [4] = system: female Balb/C mice; test: Cisplatin-induced myelosuppression; conditions: for survival: day 11
# Procedure: A study was conducted to assess the effects of N^2,3′,5′-tripalmitoyldeoxyguanosine (PdG) in reducing the hematologic toxicity of cisplatin. Female Balb/C mice were divided into groups of five animals each per dose per time point. Half of the groups were given a series of three daily doses of PdG (25 mg/kg) by intraperitoneal injection and the other half were treated with the vehicle alone. Twenty-four hours later, the animals were given a single dose of cisplatin by intraperitoneal injection at one of four doses: 8, 11, 12 or 15 mg/kg. Blood samples were taken by retro-orbital eye bleed at four, seven and 11 days after administration of cisplatin.
# [5] = Ex 47: day 7 after CP, 2.5 μmoles/mouse/day
# [6] = Ex 53: day 5 after CP, palmitoylguanosine 2.0, palmitoyldeoxyguanosine 1.0 μmoles/mouse
# [7] = Ex 53: day 7 after CP, palmitoylguanosine 1.0 and 2.0, palmitoyldeoxyguanosine 1.0 μmoles/mouse
# [8] = Table 5 (Ex 62): 5 days after CP
# [9] = Table 6 (Ex 62): 7 days after CP
# [10] = Table 7 (Ex 63): 5 days after CP
# [11] = Table 8 (Ex 63): 7 days after CP
# [12] = Table 9: 7 days after 5-FU, 10 mg/kg pretreatment
# [13] = Table 9: 7 days after 5-FU, 25 mg/kg pretreatment
# [14] = Table 9: 7 days after 5-FU, 50 mg/kg pretreatment
# [15] = Table 10: 10 days after 5-FU, 5 mg/kg pretreatment
# [16] = Table 10: 10 days after 5-FU, 10 mg/kg pretreatment
# [17] = Table 10: 10 days after 5-FU, 25 mg/kg pretreatment
# [18] = Table 10: 10 days after 5-FU, 50 mg/kg pretreatment
# [19] = day 4 after cisplatin 8 mg/kg, PdG 25 mg/kg x3 before
# [20] = day 4 after cisplatin 11 mg/kg, PdG 25 mg/kg x3 before
# [21] = day 4 after cisplatin 12 mg/kg, PdG 25 mg/kg x3 before
# [22] = day 4 after cisplatin 15 mg/kg, PdG 25 mg/kg x3 before
# [23] = day 7 after cisplatin 8 mg/kg, PdG 25 mg/kg x3 before
# [24] = day 7 after cisplatin 11 mg/kg, PdG 25 mg/kg x3 before
# [25] = day 7 after cisplatin 12 mg/kg, PdG 25 mg/kg x3 before
# [26] = day 7 after cisplatin 15 mg/kg, PdG 25 mg/kg x3 before
# [27] = day 11 after cisplatin 8 mg/kg, PdG 25 mg/kg x3 before
# [28] = day 11 after cisplatin 11 mg/kg, PdG 25 mg/kg x3 before
# [29] = day 11 after cisplatin 12 mg/kg, PdG 25 mg/kg x3 before
# [30] = day 11 after cisplatin 15 mg/kg, PdG 25 mg/kg x3 before
smiles,measurement,setting,value
CCCCCCCCCCCCCCCC(=O)OC[C@H]1O[C@@H](n2cnc3c(=O)[nH]c(N)nc32)[C@H](O)[C@@H]1O,white blood cell (WBC) counts,"[1]; Ex 38: day 7 after CP, guanosine 5, acyl derivatives 2.5 μmoles/mouse/day in 0.2% Tween 80",greatest effect
same,spleen weight,"[1]; Ex 41: day 7 after CP, 5 μmoles/mouse/day in 0.2% Tween 80 on days 1-2, 1-4, 3-5, 4-6 or 1-6, vs saline",significantly greater
same,Total white blood cell (WBC) counts,"[1]; Ex 41: day 7 after CP, 5 μmoles/mouse/day, each timing group, vs saline",significantly greater
same,lymphocyte counts,"[1]; Ex 41: day 7 after CP, treatment on days 1-2 or 1-6",elevated
same,total neutrophil counts,"[1]; Ex 41: day 7 after CP, treatment on days 1-6",greatest increase
same,Neutrophils,[1]; [5],significantly elevated
same,spleen weight,[1]; [5],significantly elevated
same,total white blood cells,"[1]; Ex 47: day 7 after CP, 2.5 μmoles/mouse/day in 0.2% Tween 80 i.p. 6 days",significantly elevated
same,spleen weight,"[1]; Ex 50: day 5 after CP, 2 μmoles/mouse",significantly elevated
same,total neutrophil counts,"[1]; Ex 53: day 5 after CP, 1.0 μmoles/mouse",significantly increased
same,spleen weight,[1]; [6],significantly elevated
same,total neutrophil counts,[1]; [6],significantly elevated
same,white blood cell counts,[1]; [6],significantly elevated
same,spleen weight,[1]; [7],significantly elevated
same,total neutrophil counts,[1]; [7],significantly elevated
same,white blood cell counts,[1]; [7],significantly elevated
same,spleen weight,"[2]; Ex 42: day 7 after 5-FU 150 mg/kg, 2.5 μmoles/mouse/day in 0.2% Tween 80 i.p. 8 days","slight, but statistically significant, increase"
same,Lymphocytes,[2]; Ex 42: day 14 after 5-FU,significantly higher
same,Neutrophils,[2]; Ex 42: day 14 after 5-FU,significantly higher
same,Platelets,[2]; Ex 42: day 14 after 5-FU,significantly higher
same,spleen weight,[2]; Ex 42: day 14 after 5-FU,significantly heavier
same,total leukocytes,[2]; Ex 42: day 14 after 5-FU,significantly higher
same,number of platelets,"[2]; Ex 43: day 8 after 5-FU, 2.5 μmoles/mouse/day in 0.2% Tween 80 i.p. 7 days",significantly greater
same,number of platelets,[2]; Ex 43: day 10 after 5-FU,greater numbers
same,spleen size,[2]; Ex 43: day 10 after 5-FU,significantly larger
same,number of neutrophils vs control,[2]; Ex 43: day 12 after 5-FU,3 fold
same,spleen weight vs control mice,[2]; Ex 43: day 12 after 5-FU,more than double
"CCCCCCCCCCCCCCCC(=O)Nc1nc2c(ncn2[C@H]2C[C@H](OC(=O)CCCCCCCCCCCCCCC)[C@@H](COC(=O)CCCCCCCCCCCCCCC)O2)c(=O)[nH]1 [PdG, 3′,5′-O-N^2-tripalmitoyl-2′-deoxyguanosine]",LPS-induced elevation of serum interleukin-6,[3],attenuated
same,Neutrophils,[1]; [8],2.5 ± .3 K/μl
same,WBC,[1]; [8],4.1 ± .4 K/μl
same,Spleen,"[1]; Table 5 (Ex 62): 5 days after CP 250 mg/kg, triPdG 25 mg/kg/treatment, diPdG molar equivalent, i.p. daily",77 ± 7 mg
same,Neutrophils,[1]; [9],9.9 ± .9 K/μl
same,Platelets,[1]; [9],549 ± 25 K/μl
same,WBC,[1]; [9],13.4 ± .4 K/μl
same,Spleen,"[1]; Table 6 (Ex 62): 7 days after CP, triPdG 25 mg/kg, diPdG molar equivalent, daily 5 days",156 ± 12 mg
same,Neutrophils,[1]; [10],0.6 ± .1 K/μl
same,WBC,[1]; [10],3.6 ± .4 K/μl
same,Spleen,"[1]; Table 7 (Ex 63): 5 days after CP 250 mg/kg, TriPdG 25 mg/kg/treatment, others molar equivalent, i.p. daily",73 ± 3 mg
same,Neutrophils,[1]; [11],7.3 ± .3 K/μl
same,Platelets,[1]; [11],674 ± 37 K/μl
same,WBC,[1]; [11],3.6 ± .4 K/μl
same,Spleen,"[1]; Table 8 (Ex 63): 7 days after CP, TriPdG 25 mg/kg, others molar equivalent, daily 5 days",198 ± 23 mg
same,Platelets,"[2]; Table 9: 7 days after 5-FU, 5 mg/kg pretreatment",682 ± 66 K/μl
same,Platelets,[2]; [12],571 ± 41 K/μl
same,Spleen,[2]; [12],83 ± 6 mg
same,Platelets,[2]; [13],587 ± 19 K/μl
same,Spleen,[2]; [13],93 ± 5 mg
same,Platelets,[2]; [14],596 ± 43 K/μl
same,Spleen,[2]; [14],102 ± 4 mg
same,Neutrophils,"[2]; Table 10: 10 days after 5-FU, 1 mg/kg pretreatment",0.4 ± .2 K/μl
same,Neutrophils,[2]; [15],1.6 ± .4 K/μl
same,Spleen,[2]; [15],157 ± 13 mg
same,Neutrophils,[2]; [16],1.8 ± .4 K/μl
same,Spleen,[2]; [16],169 ± 24 mg
same,Lymphocytes,[2]; [17],8.3 ± .4 K/μl
same,Neutrophils,[2]; [17],2.9 ± .4 K/μl
same,Spleen,[2]; [17],293 ± 17 mg
same,WBC,[2]; [17],11.4 ± .6 K/μl
same,Lymphocytes,[2]; [18],8.3 ± 1.0 K/μl
same,Neutrophils,[2]; [18],2.2 ± .5 K/μl
same,Spleen,[2]; [18],320 ± 39 mg
same,WBC,[2]; [18],10.8 ± 1.6 K/μl
same,effect on red blood cells,[4]; any time point,no effect
same,WBC,"[4]; day 4 after cisplatin 8 mg/kg, PdG 25 mg/kg i.p. 3 daily doses before",10.2 ± 1.4 K/μL
same,Lymphocytes,[4]; [19],8.0 ± 0.9 K/μL
same,Neutrophils,[4]; [19],1.77 ± 0.3 K/μL
same,Lymphocytes,[4]; [20],7.9 ± 1.1 K/μL
same,Neutrophils,[4]; [20],3.99 ± 0.7 K/μL
same,WBC,[4]; [20],7.2 ± 0.6 K/μL
same,Lymphocytes,[4]; [21],5.14 ± 1.0 K/μL
same,Neutrophils,[4]; [21],1.59 ± 0.3 K/μL
same,WBC,[4]; [21],6.9 ± 0.9 K/μL
same,Lymphocytes,[4]; [22],4.37 ± 0.61 K/μL
same,Neutrophils,[4]; [22],2.69 ± 1.3 K/μL
same,WBC,[4]; [22],7.1 ± 1.0 K/μL
same,Lymphocytes,[4]; [23],5.38 ± 0.71 K/μL
same,Neutrophils,[4]; [23],2.74 ± 0.50 K/μL
same,Platelets,[4]; [23],910 ± 135 K/μL
same,Lymphocytes,[4]; [24],5.44 ± 0.22 K/μL
same,Neutrophils,[4]; [24],4.58 ± 0.3 K/μL
same,Platelets,[4]; [24],974 ± 49 K/μL
same,WBC,[4]; [24],9.4 ± 0.83 K/μL
same,Lymphocytes,[4]; [25],5.14 ± 0.91 K/μL
same,Neutrophils,[4]; [25],3.23 ± 0.7 K/μL
same,WBC,[4]; [25],8.5 ± 0.9 K/μL
same,Lymphocytes,[4]; [26],2.80 ± 0.44 K/μL
same,Neutrophils,[4]; [26],4.06 ± 0.46 K/μL
same,WBC,[4]; [26],7.0 ± 0.38 K/μL
same,survival,[4]; 12 mg/kg cisplatin (60% of the controls had died),All
same,survival,[4]; 15 mg/kg cisplatin (all control animals dead),three of five
same,Lymphocytes,[4]; [27],7.9 ± 0.5 K/μL
same,Neutrophils,[4]; [27],1.33 ± 0.32 K/μL
same,Platelets,[4]; [27],994 ± 29 K/μL
same,WBC,[4]; [27],9.3 ± 0.3 K/μL
same,Lymphocytes,[4]; [28],7.9 ± 1.23 K/μL
same,Neutrophils,[4]; [28],1.00 ± 0.37 K/μL
same,Platelets,[4]; [28],968 ± 47 K/μL
same,WBC,[4]; [28],8.7 ± 1.0 K/μL
same,Lymphocytes,[4]; [29],5.34 ± 0.73 K/μL
same,Neutrophils,[4]; [29],3.26 ± 0.48 K/μL
same,Platelets,[4]; [29],738 ± 35 K/μL
same,WBC,[4]; [29],8.7 ± 0.6 K/μL
same,Lymphocytes,[4]; [30],7.65 ± 0.49 K/μL
same,Neutrophils,[4]; [30],2.02 ± 0.68 K/μL
same,Platelets,[4]; [30],657 ± 113 K/μL
same,WBC,[4]; [30],9.7 ± 0.3 K/μL
same,platelet counts higher than in vehicle-treated control animals,"[4]; day four, cisplatin 8 mg/kg",approximately 30%
